pIC50: −log10 of the molar value.
Target: T1, human IDO1 (Homo sapiens, UniProt P14902)
T1 construct: expressed in transfected cells
Assay: HEK293 human IDO1 cell-based IDO inhibition assay
Conditions: read-out: HEK Human IDO-1 Potency
Procedure: 1HEK293 cells were transfected with a pCDNA-based mammalian expression vector harboring human IDO1 cDNA (NM 002164.2) by electroporation. They were cultured in medium (DMEM with 10% FBS) containing 1 mg/ml G418 for two weeks. Clones of HEK293 cells that stably expressed human IDO1 protein were selected and expanded for IDO inhibition assay.
The human IDOL/HEK293 cells were seeded at 10,000 cells per 50 μL per well with RPMI/phenol red free media contains 10% FBS in a 384-well black wall clear bottom tissue culture plate (Matrix Technologies LLC) 100 nL of certain concentration of compound was then added to each well using ECHO liquid handling systems. The cells were incubated for 20 hours in 37° C. incubator with 5% CO2.
The compound treatments were stopped by adding Trichloroacetic Acid (Sigma-Aldrich) to a final concentration at 0.2%. The cell plate was further incubated at 50° C. for 30 minute. The equal volume supernatant (20 μL) and 0.2% (w/v) Ehrlich reagent (4-dimethylaminobenzaldehyde, Sigma-Aldrich) in glacial acetic acid were mixed in a new clear bottom 384-well plate. This plate was then incubated at room temperature for 30 minute. The absorbance at 490 nm was measured on Envision plate reader.

T1 sequence (P14902 whole entry): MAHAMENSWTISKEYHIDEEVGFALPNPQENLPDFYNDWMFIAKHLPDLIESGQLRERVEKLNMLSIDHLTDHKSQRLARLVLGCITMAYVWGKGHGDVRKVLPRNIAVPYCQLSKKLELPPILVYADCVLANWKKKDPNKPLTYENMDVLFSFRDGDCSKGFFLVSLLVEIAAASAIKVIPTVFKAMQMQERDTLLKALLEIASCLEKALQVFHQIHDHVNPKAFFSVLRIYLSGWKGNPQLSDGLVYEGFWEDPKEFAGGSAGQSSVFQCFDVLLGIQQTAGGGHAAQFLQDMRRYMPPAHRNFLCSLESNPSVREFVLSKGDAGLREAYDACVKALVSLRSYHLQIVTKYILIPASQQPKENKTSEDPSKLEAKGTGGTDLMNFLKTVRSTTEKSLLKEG

SMILES | pIC50
COC(=O)c1cccc(NC(=O)[C@H](C)[C@H]2CC[C@@H](c3ccnc4ccc(F)cc43)CC2)c1 [Example 67, methyl 3-((R)-2-((cis)-4-(6-fluoroquinolin-4-yl)cyclohexyl)propanamido)benzoate] | > 7.30
COC(=O)c1ccc(NC(=O)[C@H](C)[C@H]2CC[C@@H](c3ccnc4ccc(F)cc43)CC2)cc1 [Example 68, methyl 4-((R)-2-((cis)-4-(6-fluoroquinolin-4-yl)cyclohexyl)propanamido)benzoate] | > 7.30
C[C@@H](C(=O)N(C)c1ccccc1)[C@H]1CC[C@@H](c2ccnc3ccc(F)cc32)CC1 [Example 69, (R)-2-((cis)-4-(6-fluoroquinolin-4-yl)cyclohexyl)-N-methyl-N-phenylpropanamide] | < 6.60
C[C@@H](C(=O)Nc1cccc(C(F)(F)F)c1)[C@H]1CC[C@@H](c2ccnc3ccc(F)cc32)CC1 [Example 70, (R)-2-((cis)-4-(6-fluoroquinolin-4-yl)cyclohexyl)-N-(3-(trifluoromethyl)phenyl)propanamide] | > 7.30
C[C@@H](C(=O)Nc1ccc(Oc2ccccc2)cc1)[C@H]1CC[C@@H](c2ccnc3ccc(F)cc32)CC1 [Example 71, (R)-2-((cis)-4-(6-fluoroquinolin-4-yl)cyclohexyl)-N-(4-phenoxyphenyl)propanamide] | > 7.30
Cc1cccc(NC(=O)[C@H](C)[C@H]2CC[C@@H](c3ccnc4ccc(F)cc43)CC2)c1 [Example 72, (R)-2-((cis)-4-(6-fluoroquinolin-4-yl)cyclohexyl)-N-(m-tolyl)propanamide] | > 7.30
C[C@@H](C(=O)Nc1cccc(Oc2ccccc2)c1)[C@H]1CC[C@@H](c2ccnc3ccc(F)cc32)CC1 [Example 73, (R)-2-((cis)-4-(6-fluoroquinolin-4-yl)cyclohexyl)-N-(3-phenoxyphenyl)propanamide] | > 6.60
C[C@@H](C(=O)Nc1ccccc1Oc1ccccc1)[C@H]1CC[C@@H](c2ccnc3ccc(F)cc32)CC1 [Example 73a, (R)-2-((cis)-4-(6-fluoroquinolin-4-yl)cyclohexyl)-N-(2-phenoxyphenyl)propanamide] | < 6.60
C[C@@H](C(=O)Nc1ccncc1)[C@H]1CC[C@@H](c2ccnc3ccc(F)cc32)CC1 [Example 74, (R)-2-((cis)-4-(6-fluoroquinolin-4-yl)cyclohexyl)-N-(pyridin-4-yl)propanamide] | > 7.30
C[C@@H](C(=O)Nc1nccs1)[C@H]1CC[C@@H](c2ccnc3ccc(F)cc32)CC1 [Example 75, (R)-2-((cis)-4-(6-fluoroquinolin-4-yl)cyclohexyl)-N-(thiazol-2-yl)propanamide] | > 6.60
C[C@@H](C(=O)Nc1cccnc1)[C@H]1CC[C@@H](c2ccnc3ccc(F)cc32)CC1 [Example 76, (R)-2-((cis)-4-(6-fluoroquinolin-4-yl)cyclohexyl)-N-(pyridin-3-yl)propanamide] | > 7.30
C[C@@H](C(=O)Nc1ccccc1F)[C@H]1CC[C@@H](c2ccnc3ccc(F)cc32)CC1 [Example 77, (R)-N-(2-fluorophenyl)-2-((cis)-4-(6-fluoroquinolin-4-yl)cyclohexyl)propanamide] | > 7.30
CCOc1ccc(NC(=O)[C@H](C)[C@H]2CC[C@@H](c3ccnc4ccc(F)cc43)CC2)cc1 [Example 78, (R)-N-(4-ethoxyphenyl)-2-((cis)-4-(6-fluoroquinolin-4-yl)cyclohexyl)propanamide] | > 7.30
C[C@@H](C(=O)Nc1cccc(C#N)c1)[C@H]1CC[C@@H](c2ccnc3ccc(F)cc32)CC1 [Example 79, (R)-N-(3-cyanophenyl)-2-((cis)-4-(6-fluoroquinolin-4-yl)cyclohexyl)propanamide] | > 6.60
Cc1ccc(NC(=O)[C@H](C)[C@H]2CC[C@@H](c3ccnc4ccc(F)cc43)CC2)cc1Cl [Example 80, (R)-N-(3-chloro-4-methylphenyl)-2-((cis)-4-(6-fluoroquinolin-4-yl)cyclohexyl)propanamide] | > 7.30
